Laboratory results as given in BigSolDB 2.1.

O=c1cc(-c2ccc(O)c(O)c2)oc2cc(O)cc(O)c12
solubility (mole fraction)
Settings	298.2 K	303.2 K	308.2 K	313.2 K	318.2 K
in DMSO	0.0515	0.0564	0.0615	0.0665	0.0715
in ethanol	0.00188	0.00209	0.00241	0.00273	0.00308
in ethyl acetate	0.00261	0.00313	0.00368	0.00438	0.00511
in ethylene glycol	0.0013	0.00158	0.0019	0.00229	0.00268
in isopropanol	0.00251	0.00278	0.00316	0.00366	0.00414
in methanol	0.00047	0.000537	0.000638	0.000727	0.000816
in n-butanol	0.00335	0.00369	0.00415	0.00477	0.00536
in propylene glycol	0.00212	0.00249	0.00289	0.00336	0.00389
in sec-butanol	0.0035	0.00381	0.00435	0.00489	0.00553
in transcutol	0.0309	0.0331	0.0354	0.0378	0.0401
in water	1.75e-06	2.24e-06	2.83e-06	3.49e-06	4.17e-06

Settings	solubility (mole fraction)
in PEG-400, 298.2 K	0.1
in PEG-400, 303.2 K	0.106
in PEG-400, 308.2 K	0.113
in PEG-400, 313.2 K	0.119
in PEG-400, 318.2 K	0.127
